Source: patent US4320141A, “Antitumor agent” (priority 1977, dated 1982)
Like-named read-outs stand apart in the source and are kept apart here.

Legend:
[1] = Acute toxicity in mice (LD50); assay type: in vivo; conditions: for LD50: mouse, in vivo
Description: Acute toxicity in mice of α-tocopherol vitamin A acid ester which is the active ingredient of the antitumor agent of this invention is particularly low as shown below, even when any route of administration such as oral route, intraperitoneal route or intravenous injection is applied.

tumor [2] = assay: Prophylactic effect on development of tumor (DMBA-initiated, croton oil-promoted, coated on depilated back); assay type: in vivo, ICR mice; conditions: groups of 10 mice, 4 months
Description: To groups of 10 ICR mice, was applied 0.2% acetone solution of a cancerigenic agent, dimethylbenzanthracene (abbreviated hereinafter as DMBA) by coating said solution on the depilated back of the mice once a day for two weeks. From one week after the final administration of DMBA, an acetone solution of. 0.06% croton oil and a lotion containing an acetone solution of 0.06% croton oil and the active ingredient according to the present invention were coated successively on the back once a day for 4 months.
The lotion used above was prepared according to the following process:
A desired amount of α-tocopherol vitamin A acid ester was dissolved in 10 g of ethyl alcohol together with 0.5 g of […] sorbitan monolaurate and 6 g of glycerin and purified water were added thereto to make up the total 100 g. The solution thus obtained was stirred thoroughly to give lotion.

tumor [3] = assay: Therapeutic effect on tumor (DMBA-induced, hairless mice); assay type: in vivo; conditions: three weeks, counted on each animal
Method: On the back of hairless mice was coated 0.2% DMBA dissolved in olive oil with a brush three times a week for 2 months. After confirmation of development of tumor, test zone comprising groups of five mice was arranged indiscriminately. To these animals was administered α-tocopherol vitamin A acid ester either topically or orally and change of tumor was observed.
the back of animal twice a day with brush.

[4] = tested on: experimental tumor developed on epithelial cells; conditions: prophylaxis or therapy of experimental tumor; cited from earlier work
[5] = in vivo; cited from earlier work
[6] = intravenous, read-out: LD50, intravenous injection
[7] = ip, intraperitoneal, read-out: LD50, intraperitoneal administration
[8] = oral, read-out: LD50, oral administration
[9] = 0.3% lotion, percutaneous, without croton oil
[10] = croton oil + 0.02% lotion, percutaneous, croton oil alone 10
[11] = croton oil + 0.3% lotion, percutaneous, croton oil alone 10
[12] = 0.01% lotion, topical twice a day, control 5
[13] = 0.01% lotion, topical twice a day, control 8
[14] = 0.01% lotion, topical twice a day, control 17
[15] = 0.05% lotion, topical twice a day, control 5
[16] = 0.05% lotion, topical twice a day, control 8
[17] = 0.05% lotion, topical twice a day, control 17

With `CC1=C(/C=C/C(C)=C/C=C/C(C)=C\C(=O)Oc2c(C)c(C)c3c(c2C)CCC(C)(CCCC(C)CCCC(C)CCCC(C)C)O3)C(C)(C)CCC1` (stereo not drawn) [α-tocopherol-13-cis-vitamin A acid ester] the LD50 [1, 6] was greater than 1000 mg/kg, the LD50 [1, 7] was greater than 10000 mg/kg and the LD50 [1, 8] was greater than 10000 mg/kg. For the same molecule, the “Number of animals in which tumor was developed” value (“Number of animals” below) (tumor [2]; [9]) was 0, the “Number of animals” value (tumor [2]; [10]) was 4 and the “Number of animals” value (tumor [2]; [11]) was 2. For the same molecule, the “Average number of tumor, smaller than 2mm” value (tumor [3]; [12]) was 8, the “Average number of tumor, 5-2mm” value (tumor [3]; [13]) was 3 and the “Average number of tumor, larger than 5mm” value (tumor [3]; [14]) was 4. The “Average number of tumor, smaller than 2mm” value (tumor [3]; [15]) was 4, the “Average number of tumor, 5-2mm” value (tumor [3]; [16]) was 6 and the “Average number of tumor, larger than 5mm” value (tumor [3]; [17]) was 2.

For `CC1=C(/C=C/C(C)=C/C=C/C(C)=C/C(=O)O)C(C)(C)CCC1` [Vitamin A acid, vitamin A acid, reference compound], the “LD50, intraperitoneal administration” value ([1]; intraperitoneal) was 150 mg/kg, the “LD50, intravenous injection” value ([1]; intravenous) was 92 mg/kg and the “LD50, oral administration” value ([1]; oral) was 780 mg/kg. The “Antitumor activity (in words)” value [4] was “effective for prophylaxis of development or therapy of experimental tumor developed on epithelial cells” and the “Toxicity (in words)” value [5] was “quite strongly toxic”.

Molecule `CC1=C(/C=C/C(C)=C/C=C/C(C)=C/C(=O)Oc2c(C)c(C)c3c(c2C)CCC(C)(CCCC(C)CCCC(C)CCCC(C)C)O3)C(C)(C)CCC1` (stereo not drawn) [α-tocopherol-trans-vitamin A acid ester] has an LD50 [1, 6] greater than 1000 mg/kg, an LD50 [1, 7] greater than 10000 mg/kg and an LD50 [1, 8] greater than 10000 mg/kg. For the same molecule, the “Number of animals” value (tumor [2]; [9]) was 0, the “Number of animals” value (tumor [2]; [10]) was 5 and the “Number of animals” value (tumor [2]; croton oil + 200mg/day, oral, croton oil alone 10) was 3. The “Number of animals” value (tumor [2]; [11]) was 2, the “Average number of tumor, smaller than 2mm” value (tumor [3]; [12]) was 8 and the “Average number of tumor, 5-2mm” value (tumor [3]; [13]) was 5. For the same molecule, the “Average number of tumor, larger than 5mm” value (tumor [3]; [14]) was 7, the “Average number of tumor, smaller than 2mm” value (tumor [3]; [15]) was 13 and the “Average number of tumor, 5-2mm” value (tumor [3]; [16]) was 6. For the same molecule, the “Average number of tumor, larger than 5mm” value (tumor [3]; [17]) was 1, the “Average number of tumor, smaller than 2mm” value (tumor [3]; 200mg/kg, oral, control (topical) 5) was 10 and the “Average number of tumor, 5-2mm” value (tumor [3]; 200mg/kg, oral, control (topical) 8) was 6. The “Average number of tumor, larger than 5mm” value (tumor [3]; 200mg/kg, oral, control (topical) 17) was 4, the “Average number of tumor, smaller than 2mm” value (tumor [3]; 500mg/kg, oral, control (topical) 5) was 6 and the “Average number of tumor, 5-2mm” value (tumor [3]; 500mg/kg, oral, control (topical) 8) was 5. The “Average number of tumor, larger than 5mm” value (tumor [3]; 500mg/kg, oral, control (topical) 17) was 2.
